Measured values as given in patent publication US7687609B2, “Galectin-glycosaminoglycan complex and method for controlling galectin activity” (National Institute of Advanced Industrial Science and …, priority 2006, dated 2010).

Key:
Galectin-3 [1] = molecular target: T1, Galectin-3 (Homo sapiens, UniProt P17931); assay: FAC competitive inhibition test, binding of galectin-3 with LNnT; details: 5.0 nM PA-LNnT; for V2 − V0: V1 − V0 30.6 μl
T1 construct: made in house
Protocol: (§1) A model test on a competitive inhibition was carried out by FAC, in which binding of a galectin molecule with a carbohydrate which binds to the galectin molecule is inhibited by a glycosaminoglycan molecule. The FAC was carried out in accordance with the above-described example (1). In addition, as a model carbohydrate which is known to be bound to the galectin molecule, a pyridylamination product of lacto-N-neotetraose (LNnT hereinafter, Gal β1-4 GlcNAc β1-3 Gal β1-4 Glc, purchased from Seikagaku Corporation) was used.
(§2) In the test, 5.0 nM in final concentration of PA-LNnT sample solution was mixed with various concentration of glycosaminoglycan molecule (not pyridyl-aminated, namely an inhibitory carbohydrate) to measure the eluate volume (V2 value) by FAC, and the inhibition ratio (%) was calculated as follows from the eluate volume (V1 value) before the mixing and the eluate volume (V0 value) of a negative control sample. Inhibition ratio (%)=100×(V1−V2)/(V1−V0) Formula 1
(§3) In this connection, the unlabeled (not pyridyl-aminated) CH4, CH6, CH10, HA4 and CSA4 were respectively prepared at Seikagaku Corporation in accordance with a conventionally known method.

Galectin-3 [2] = molecular target: T1, Galectin-3; assay: FAC affinity test on galectin-immobilized column; format: binding; details: pyridyl-aminated carbohydrate; galectin-3 immobilized 0.5 mg/ml; less than 5 μl = below interaction detection limit
Protocol: (§4) Various galectin molecules-immobilized columns were prepared by the method described by Nakamura S, Yagi F, Totani K, Ito γ and Hirabayashi J in FEBS J., 272, 2784-2799 (2005), using NHS Sepharose (manufactured by Amersham Bioscience) as the carrier for immobilizing galectin molecules and in accordance with the instructions attached thereto (put in parentheses is immobilization concentration, mg galectin/ml carrier).
(§5) Each galectin molecule was immobilized onto the carrier at the following concentration; galectin-1 (0.8 mg/ml), galectin-3 (0.5 mg/ml), galectin-8N (3.6 mg/ml), galectin-8C (4.0 mg/ml), galectin-9N (3.6 mg/ml), galectin-9C (3.0 mg/ml). The carrier on which each galectin was immobilized was charged into a stainless steel miniature column (2 mm in inner diameter, 10 mm in length; manufactured by Shimadzu Corp.).
(§6) A high performance liquid chromatography (HPLC) system was equipped with a galectin molecule-immobilized column, and the test was carried out by the method described in Nakamura S, Yagi F, Totani K, Ito γ and Hirabayashi J in FEBS J., 272, 2784-2799 (2005).
(§7) As the negative control sample, pyridyl-aminated N-acetylglucosamine (PA-GlcNAc, manufactured by Takara Bio, pyridyl-aminated glycosaminoglycan-oligosaccharide sample control) or pyridyl-aminated pullulan (prepared by carrying out pyridylamination of standard pullulan manufactured by Shodex, pyridyl-aminated glycosaminoglycan polysaccharide sample control) was used, and a V−V0 value was calculated from their eluate volume (V0 value) measured by fluorescence detection and the eluate volume (V value) of the sample, namely pyridyl-aminated glycosaminoglycan carbohydrate, and this was used as the index of interaction strength (Protein, Nucleic Acid and Enzyme, 48(8), 1206-1212 (2003)).
(§8) V−V0 values of pyridyl-aminated glycosaminoglycans (HA, CH, DN, NAH, CSA, CSB, CSC, CSD, CSE, KS-I and KS-II) were calculated based on PA-GlcNAc, and V−V0 values of pyridyl-aminated glycosaminoglycan-oligosaccharides (G2K1, G1L1, G4L4, L2L2, L2L4, L4L4, SL2L4 and CH3 to CH12) based on pyridyl-aminated pullulan, respectively.
(§9) In this connection, when the calculated value of the V−V0 value was less than 5 μl, it was regarded as less than the interaction detection limit in this example.

Galectin-9C = molecular target: T2, Galectin-9C (Homo sapiens, UniProt O00182); assay: FAC affinity test on galectin-immobilized column; format: binding; details: pyridyl-aminated carbohydrate; galectin-9C immobilized 3.0 mg/ml; less than 5 μl = below interaction detection limit
T2 construct: N and C respectively represent N-terminal side carbohydrate-recognition domain and C-terminal side carbohydrate-recognition domain; made in house
T2 sequence (O00182 227-355 limits assumed): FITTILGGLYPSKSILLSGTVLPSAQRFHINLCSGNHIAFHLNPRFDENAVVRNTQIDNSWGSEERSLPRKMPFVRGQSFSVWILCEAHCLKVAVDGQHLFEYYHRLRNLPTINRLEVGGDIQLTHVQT
Protocol: as §4, §5, §6, §7, §8, §9

Galectin-9N [3] = molecular target: T3, Galectin-9N (Homo sapiens, UniProt O00182); assay: FAC affinity test on galectin-immobilized column; format: binding; details: pyridyl-aminated carbohydrate; galectin-9N immobilized 3.6 mg/ml; less than 5 μl = below interaction detection limit
T3 construct: N and C respectively represent N-terminal side carbohydrate-recognition domain and C-terminal side carbohydrate-recognition domain; made in house
T3 sequence (O00182 17-148 limits assumed): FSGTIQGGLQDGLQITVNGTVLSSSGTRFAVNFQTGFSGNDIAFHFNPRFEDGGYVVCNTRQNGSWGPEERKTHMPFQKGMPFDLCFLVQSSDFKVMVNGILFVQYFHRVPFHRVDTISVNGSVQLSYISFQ
Protocol: as §4, §5, §6, §7, §8, §9

Galectin-1 = molecular target: T4, Galectin-1 (Homo sapiens, UniProt P09382); assay: FAC affinity test on galectin-immobilized column; format: binding; details: pyridyl-aminated carbohydrate; galectin-1 immobilized 0.8 mg/ml; less than 5 μl = below interaction detection limit
T4 construct: made in house
T4 sequence (P09382 whole entry): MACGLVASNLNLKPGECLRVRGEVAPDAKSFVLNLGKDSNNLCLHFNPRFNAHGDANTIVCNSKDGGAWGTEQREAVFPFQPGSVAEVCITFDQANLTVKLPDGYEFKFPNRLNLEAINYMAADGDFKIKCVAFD
Protocol: as §4, §5, §6, §7, §8, §9

Galectin-9N [4] = molecular target: T3, Galectin-9N; assay: FAC competitive inhibition test, binding of galectin-9N with LNnT; details: for Inhibition ratio / V2 − V0: 5.0 nM PA-LNnT; for V2 − V0: V1 − V0 20.3 μl
Protocol: as §1, §2, §3

[5] = final conc. 10 μM unlabeled inhibitor
[6] = final conc. 1 μM unlabeled inhibitor
[7] = final conc. 5 μM unlabeled inhibitor
[8] = final conc. 50 μM unlabeled inhibitor
[9] = final conc. 250 μM unlabeled inhibitor

T1 sequence (P17931 whole entry): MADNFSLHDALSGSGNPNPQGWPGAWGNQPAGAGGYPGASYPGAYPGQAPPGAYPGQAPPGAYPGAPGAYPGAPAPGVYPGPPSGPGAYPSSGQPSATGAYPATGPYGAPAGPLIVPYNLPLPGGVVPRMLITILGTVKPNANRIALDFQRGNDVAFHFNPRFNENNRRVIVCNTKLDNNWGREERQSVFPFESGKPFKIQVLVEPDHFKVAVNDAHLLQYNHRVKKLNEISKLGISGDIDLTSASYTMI

Row | Inhibition ratio (Galectin-3 [1]; [5]) [%] | V2 − V0 (Galectin-3 [1]; [5]) [µL] | V − V0 Value (Galectin-3 [2]) [µL] | V − V0 Value (Galectin-9C) [µL] | V − V0 Value (Galectin-9N [3]) [µL] | V − V0 Value (Galectin-1) [µL] | Inhibition ratio (Galectin-9N [4]; [6]) [%] | V2 − V0 (Galectin-9N [4]; [6]) [µL] | Inhibition ratio (Galectin-9N [4]; [7]) [%] | V2 − V0 (Galectin-9N [4]; [7]) [µL] | Inhibition ratio (Galectin-9N [4]; [5]) [%] | V2 − V0 (Galectin-9N [4]; [5]) [µL] | Inhibition ratio (Galectin-9N [4]; [8]) [%] | V2 − V0 (Galectin-9N [4]; [8]) [µL] | Inhibition ratio (Galectin-3 [1]; [8]) [%] | V2 − V0 (Galectin-3 [1]; [8]) [µL] | Inhibition ratio (Galectin-3 [1]; [9]) [%] | V2 − V0 (Galectin-3 [1]; [9]) [µL] | Compound | inhibition of binding of galectin-9N with LNnT (in words) (Galectin-9N [4]; Table 5)
1 | 38.2 | 18.9 | 11.8 ± 3.3 | <5.0 | 171.5 | <5.0 | – | – | – | – | – | – | – | – | – | – | – | – | CC(=O)N[C@H]1[C@H](O[C@H]2[C@H](O)[C@@H](O)[C@H](O[C@H]3[C@@H](O)[C@@H](CO)O[C@@H](O[C@H]4[C@H](O)[C@@H](O)[C@H](O[C@H]5[C@@H](O)[C@@H](CO)O[C@@H](O[C@H]6[C@H](O)[C@@H](O)[C@H](O[C@H]7[C@@H](O)[C@@H](CO)O[C@@H](O[C@H]8[C@H](O)[C@@H](O)[C@H](O[C@H]9[C@@H](O)[C@@H](CO)OC(O)[C@@H]9NC(C)=O)O[C@@H]8C(=O)O)[C@@H]7NC(C)=O)O[C@@H]6C(=O)O)[C@@H]5NC(C)=O)O[C@@H]4C(=O)O)[C@@H]3NC(C)=O)O[C@@H]2C(=O)O)O[C@H](CO)[C@H](O)[C@@H]1O[C@@H]1O[C@H](C(=O)O)[C@@H](O)[C@H](O)[C@H]1O (stereo partly drawn) [CH10, GlcA β1-3 (GalNAc β1-4 GlcA β1-3)4 GalNAc] | –
2 | 5.2 | 29.0 | 5.8 ± 1.4 | <5.0 | 33.3 ± 3.0 | <5.0 | – | – | – | – | – | – | – | – | – | – | – | – | CC(=O)N[C@H]1[C@H](O[C@H]2[C@H](O)[C@@H](O)[C@H](O[C@H]3[C@@H](O)[C@@H](CO)O[C@@H](O[C@H]4[C@H](O)[C@@H](O)[C@H](O[C@H]5[C@@H](O)[C@@H](CO)OC(O)[C@@H]5NC(C)=O)O[C@@H]4C(=O)O)[C@@H]3NC(C)=O)O[C@@H]2C(=O)O)O[C@H](CO)[C@H](O)[C@@H]1O[C@@H]1O[C@H](C(=O)O)[C@@H](O)[C@H](O)[C@H]1O (stereo partly drawn) [CH6, GlcA β1-3 (GalNAc β1-4 GlcA β1-3)2 GalNAc] | –
3 | 12.7 | 26.7 | <5.0 | – | 45.3 ± 4.8 | <5.0 | 16.7 | 16.9 | 26.1 | 15.0 | 32.5 | 13.7 | 71.4 | 5.8 | 32.0 | 20.8 | 48.0 | 15.9 | CC(=O)N[C@H]1[C@H](O[C@H]2[C@H](O)[C@@H](O)[C@H](O[C@H]3[C@@H](O)[C@@H](CO)OC(O)[C@@H]3NC(C)=O)O[C@@H]2C(=O)O)O[C@H](CO)[C@H](O)[C@@H]1O[C@@H]1O[C@H](C(=O)O)[C@@H](O)[C@H](O)[C@H]1O (stereo partly drawn) [CH4, GlcA β1-3 GalNAc β1-4 GlcA β1-3 GalNAc] | inhibited by CH4 concentration-dependently
